Read-outs that look alike come from different tables or passages of the source. Marks after values point to notes of the source that are not given here.
Legend:
[1] = system: guinea pig isolated heart; test: K-H buffer perfused guinea pig isolated heart: MAP duration, EADs and VT
Excerpt: To study the effect of ranolazine on ATXII induced MAP (monophasic action potential) duration prolongation, EADs and ventricular tachyarrhythmia (VT), the K—H buffer perfused guinea pig isolated heart model was used.
Multiple EADs and sustained depolarizations were frequently observed.

[2] = system: guinea pig ventricular myocytes; test: Action potential duration, EADs and triggered activity in guinea pig ventricular myocytes
Description: Single ventricular myocytes were isolated from the hearts of adult, male guinea pigs (Harlan). In brief, the hearts were perfused with warm (35° C.) and oxygenated solutions in the following order: 1) Tyrode solution containing (in mmol/L) 140 NaCl, 4.6 KCl, 1.8 CaCl2, 1.1 MgSO4, 10 glucose and 5 HEPES, pH 7.4, for 5 minutes; 2) Ca^2+-free solution containing (in mmol/L) 100 NaCl, 30 KCl, 2 MgSO4, 10 glucose, 5 HEPES, 20 taurine, and 5 pyruvate, pH 7.4, for 5 minutes; and 3) Ca^2+-free solution containing sollagenase (120 units/ml) and albumin (2 mg/ml), for 20 minutes. At the end of the perfusion, the ventricles were removed, minced, and gently shaken for 10 minutes in solution #3. Isolated cells were harvested from the cell suspension.
Myocytes were placed into a recording chamber and superfused with Tyrode solution at 35° C. Drugs were applied via the superfusate. Action potentials were measured using glass microelectrodes filled with a solution containing (in mmol/L) 120 K-aspartate, 20 KCl, 1 MgCl2, 4 Na2ATP, 0.1 Na3GTP, 10 glucose, 1 EGTA and 10 HEPES (pH 7.2). Microelectrode resistance was 1-3 MΩ. An Axopatch-200 amplifier, a DigiData-1200A interface and pCLAMP6 software were used to perform electrophysiological measurements. Action potentials were induced by 5-ms depolarizing pulses applied at various frequencies as indicated. The duration of action potential was measured at 50% (APD50) and 90% (APD90) repolarization.
1) Ventricular myocytes were electrically stimulated at a frequency of 0.5, 1 or 2 Hz. Each myocyte was treated with 3, 10 and 30 μmol/L ranolazine. The effect of ranolazine on action potential duration at each pacing frequency was determined from 4 myocytes.
2) Action potentials were elicited at a frequency of 0.25 Hz, and the effect of ranolazine (10 μmol/L) on action potential duration was examined in the presence of 5 μmol/L quinidine. Experiments were performed on 4 myocytes.
Following the procedures and protocols of Example 21, guinea pig ventricular myocytes were electrically stimulated in the presence of ranolazine either alone or in the presence of ATX II [a sea anemone toxin known to mimic LQT3 syndrome by slowing Na^+-channel inactivation from the open state and thereby increasing the peak and late Na^+ current (INa) of cardiomyocytes]. ATXII is known to induce early afterdepolarizations (EADs) and triggered activity and ventricular tachycardia.
Action potentials were recorded using the whole-cell patch-electrode technique. Ventricular monophasic action potentials and electrograms were recorded from isolated hearts.
The ventricular APD of guinea pigs isolated myocytes and hearts was measured, respectively, at 50% (APD50) and 90% (MAPD90) repolarization.

[3] = system: anesthetized dog; test: QT prolongation and arrhythmia induction in anesthetized dog with AV block and phenylephrine challenge; conditions: for Arrhythmia occurrence: individual dogs; for Mean ERP LV / Mean ERP RY: sot 8 + 4
Description: Dogs were pretreated with Atravet (0.07 mg/kg sc) and then 15 minutes later anesthetized with ketamine (5.3 mg/kg iv) and valium (0.25 mg/kg iv) followed by isoflurane (1-2%), intubated and subjected to mechanical ventilation. They were then subjected to AV block with radiofrequency ablation. A median sternotomy was performed and catheters were inserted into a femoral artery for blood pressure (BP) recording and into both femoral veins for infusion of test drugs. Bipolar electrodes were inserted into both ventricles for programmed stimulation determination of refractory periods (extrastimulus technique), as well as for evaluation of QT interval and QRS duration at various controlled basic cycle lengths (BCLs). TdP was induced by challenges of phenylephrine, which were given as bolus intravenous doses of 10, 20, 30, 40 and 50 μg/kg. After each dose, the ECG was monitored continuously to detect arrhythmias. […] Test drug effects were evaluated as per protocols below.
Data are presented as the mean ±S.E.M. Statistical comparisons were made with Student's t test. A 2-tailed probability<0.05 was taken to indicate statistical significance. In data tables, * denotes P<0.05, **P<0.01.
Group 2 (6 dogs): Five dogs received ranolazine as a 0.5 mg/kg iv load followed by a first, a second and a third continuous iv infusion of 1.0, 3.0 and 15 mg/kg/hr, respectively. One dog received ranolazine as a 1.5 mg/kg iv load followed by infusions of 15 and 30 mg/kg/hr. […] The phenylephrine challenges were then given, with all doses given at each drug infusion rate, and any arrhythmias monitor.

Compound: ATXII: a sea anemone toxin known to mimic LQT3 syndrome by slowing Na+-channel inactivation from the open state [reference compound]
- Increase of MAPD90 ([1]; ATX-II 7 nmol/L alone): 32±0.1%
- Isolated hearts with EADs and (polymorphic) VT ([1]; ATXII 10-20 nM): 10/14
- Prolongation of MAPD90 ([1]; ATXII 10-20 nM, 4 hearts without rapid ventricular arrhythmia): 6%
- Isolated hearts with EADs and (polymorphic) VT ([1]; ATXII 10-20 nM, listed as ATX-II): 10 of 14
- Increase of APD50 ([2]; ATX-II 3 nmol/L alone): 6±2%
- Induction of EADs ([2]; ATX-II 10-20 nmol/L): induced EADs in all cells
- APD50 in the presence of ATX-II ([2]; ATX-II 10-20 nmol/L, n=24): 1,148±49 ms
- Induction of EADs ([2]; ATXII 10-40 nmol/L): induced EADs in all cells
- APD50 in the presence of ATXII ([2]; ATXII 10-40 nmol/L, n=20): 1,154±61 ms

Compound: CC(C)NCC(O)c1ccc(NS(C)(=O)=O)cc1 (racemic) [sotalol, reference compound]
- Arrhythmia occurrence ([3]; Sot 8 + 4 plus phenylephrine 10 μg/kg, — = none): death
- Arrhythmia occurrence ([3]; Sot 8 + 4 plus phenylephrine 30 μg/kg): death
- Arrhythmia occurrence ([3]; Sot 8 + 4 plus phenylephrine 40 μg/kg): tdp VF death
- Arrhythmia occurrence ([3]; Sot 8 + 4 plus phenylephrine 50 μg/kg): death
- Effect on QRS duration ([3]; dog, in vivo): did not affect
- Mean ERP LV ([3]; BCL 300): 201.25 ± 18.75 ms
- Mean ERP RY ([3]; BCL 300): 181.33 ± 8.21** ms
- Mean ERP LV ([3]; BCL 400): 226.25 ± 21.25 ms
- Mean ERP RY ([3]; BCL 400): 195.67 ± 7.53** ms
- Mean ERP LV ([3]; BCL 600): 262.50 ± 27.5* ms
- Mean ERP RY ([3]; BCL 600): 223.50 ± 9.07** ms
- Mean ERP LV ([3]; BCL 1000): 286.25 ± 16.25* ms
- Mean ERP RY ([3]; BCL 1000): 255.50 ± 9.56** ms
- Death from torsade de pointes degenerating to ventricular fibrillation ([3]; sotalol infusion and a phenylephrine bolus): All the dogs eventually died

Compound: Cc1cccc(CCN2CCC(C(=O)c3ccc(NS(C)(=O)=O)cc3)CC2)n1 [E-4031, reference compound]
- Increase of MAPD90 ([1]; E-4031 1 μmol/L alone): 30.1±0.1%
- Increase of MAPD90 ([1]; E-4031 applied with ATX-II): 127.1±0.4%
- Increase of APD50 ([2]; E-4031 1 μmol/L, absence of ATX-II): 11±2%
- Increase of APD50 ([2]; E-4031 1 μmol/L, presence of ATX-II): 104±41%

Compound: CCS(=O)(=O)N(C)[C@H]1c2cc(C#N)ccc2OC(C)(C)[C@@H]1O [293B, reference compound]
- Increase of MAPD90 ([1]; 293B 1 μmol/L alone): 6.3±0.2%
- Increase of MAPD90 ([1]; 293B applied with ATX-II): 31.6±0.1%
- Induction of EADs [2]: induced EADs in the presence, but not in the absence, of ATX-II
- Increase of APD50 ([2]; 293B 30 μmol/L, absence of ATX-II): 40±7%
- Increase of APD50 ([2]; 293B 30 μmol/L, presence of ATX-II): 202±59%

Compound: C=C[C@H]1C[N@@]2CC[C@H]1C[C@@H]2[C@@H](O)c1ccnc2ccc(OC)cc12 [quinidine, reference compound]
- Effect on duration of action potential ([2]; quinidine 5 μmol/L, 0.25 Hz): increased the duration of action potential
